Data reported in patent publication US10954244B2, “Compounds and uses thereof” (Kala Pharmaceuticals, Inc., priority 2013, dated 2021).
Values belong to the compound of their own block, whether it stands above or below them.

How the values were obtained:
[1] = Mobility of nanoparticles in human cervicovaginal mucus (dark field microscopy); details: low pH of CVM
Description: In order to determine whether the generated nanoparticles have reduced interactions with mucins and are therefore able to move within mucus without becoming trapped, particles were incubated with human cervicovaginal mucus (CVM) and observed via dark field microscopy. In a typical experiment, 51 μL of the nanoparticle suspension was added to 20 μl of CVM. Observations were made in a minimum of three distinct and randomly selected areas of the CVM sample. Control particles with known behavior were used to qualify the CVM sample as appropriate for the assay.

[2] = Physical and chemical stability of I-2 solutions at room temperature; type: physicochemical; details: formulation buffered in 20 mM Tris (pH 8), F127
Description: Solutions of I-2 were formulated with F127 or Tween 80, and under a range of pH values. Briefly, I-2 was first completely solubilized using an acidic solution (0.1 N HCl) at a high concentration of ˜5% (w/v). The final formulation was diluted to a solution consisting of 0.5% (w/v) I-2 into buffered solution containing F127 or Tween 80 as described in Table 5. Following dilution, the pH of the formulations was measured using pH indicator strips (PEHANON) and confirmed to be within expected range (±0.5 units of target pH).
Physical and chemical stability of the solutions at room temperature (20-25° C.) were assessed after 7-10 days (tfinal). Physical instability in a solution can manifest as the precipitation and sedimentation of the drug of interest and excipients over time. To assess physical stability, the formulations at tfinal were first filtered through a 300 kDa modified polyethersulfone filter membrane (Nanosep) to remove any precipitate in the solution. The concentration of I-2 in the filtrates was then measured and compared to that at t=0. The purity of I-2 in the unfiltered solution was also evaluated at tfinal, to further confirm chemical stability. This parameter is defined by the area under the signal peak that is attributed to compound I-2 as a percentage of all peaks reported by in the sample by HPLC (% peak area).

[3] = Draize-Ocular Irritation assessment; type: in vivo, Dutch-belted rabbits; details: topical I-2 solution during the PK studies
[4] = Milling with Pluronic F127 to mucus penetrating particles, particle size by dynamic light scattering; type: physicochemical; details: formulated as MPP, milled with Pluronic F127, DPBS buffered
From the text: Compounds of the present invention synthesized in accordance with the preceding Examples were formulated as mucus penetrating particles (MPP). Specifically, compounds I-2, compound I-5, and compound I-6 were each milled in the presence of Pluronic F127 (F127) to determine whether F127 1) aids particle size reduction to several hundreds of nanometers and 2) physically (non-covalently) coats the surface of generated nanoparticles with a mucoinert coating that would minimize particle interactions with mucus constituents and prevent mucus adhesion.
A milling procedure was employed in which an aqueous dispersion containing coarse drug particles and Pluronic F127 (F127) was milled with grinding medium until particle size was reduced below 400 nm as measured by dynamic light scattering. Table 4 lists the size of particles and polydispersity index (a measure of the width of the particle size distribution) generated using this technique. In this example suspensions were buffered using DPBS (Dulbecco's Phosphate-Buffered Saline) which yields a suspension that is both isotonic and has a physiologically relevant pH.

- solubility in CVM [1]: soluble in the low pH of CVM
SMILES: Cc1cc(C(=O)Nc2cc(Oc3ccc4nc(NC(=O)CN5CC[C@H](N(C)C)C5)cn4n3)ccc2C)n(C)n1 [Compound I-2]
- physical stability of the solution [2]: major physical instability (i.e., precipitation)
- Draize-Ocular Irritation [3]: no irritation was seen

- Polydispersity Index (PDI) [4]: 0.160
SMILES: Cc1cc(C(=O)Nc2cc(Oc3ccc4nc(NC(=O)NC5COC5)cn4n3)ccc2C)n(C)n1 [Compound I-5]

- Particle Size ([4]; dynamic light scattering): 245 nm
SMILES: Cc1ccc(Oc2ccc3nc(NC(=O)CC4COC4)cn3n2)cc1NC(=O)c1cccc(F)c1 [Compound I-6]
